Results: patent US20240000948A1, “METHODS FOR TREATING EYE DISEASES USING LIPID BINDING PROTEIN-BASED COMPLEXES” (ABIONYX PHARMA SA, priority 2020, published 2024)
Read-outs that look alike come from different tables or passages of the source.

Columns and labels:
[1] = CER-001 as carrier for ophthalmic drugs: appearance of samples after thermal cycling; format: physicochemical
Protocol: (§1) A solution of CER-001 was mixed with azithromycin to provide a final azithromycin concentration of 10 mg/ml and subjected to five heating and cooling cycles from 37° C. to 55° C. to promote complexation of azithromycin to CER-001. For controls, a sample of CER-001 without added azithromycin and a sample of azithromycin at a concentration of 10 mg/ml in phosphate buffered saline (PBS) were similarly subjected to five heating and cooling cycles from 37° C. to 55° C.
as §1, with “spironolactone” for “azithromycin”, “1.5” for “10”
as §1, with “cyclosporine” for “azithromycin”, “1” for “10”

[2] = tested on: vision impairment related to LCAT deficiency (ocular lipid deposits); test: CER-001 therapy for LCAT deficiency-related vision impairment; format: in vivo, human
Protocol: A subject with LCAT deficiency and having vision impairment related to the subject's LCAT deficiency (said vision impairment being due to ocular lipid deposits) was administered CER-001 according to a treatment regimen comprising an induction regimen, a consolidation regimen, and a maintenance regimen.
Prior to treatment with CER-001, the subject had ocular lipid deposits presenting as white corneal ring opacities. The subject had normal visual acuity but visual blur, especially at night. […] Next-generation sequencing confirmed the subject as compound-heterozygous for two LCAT gene variations, but none in the ABCA1 or APOA1 genes. The first allele, motherly inherited, is an exon-5 (c.605T>C) missense mutation p.(Ile202Thr), previously well-established as familial LCAT deficiency (FLD)-causing in Europe. The paternal allele (c.154+5G>C), was novel and absent from general referral population databases. It alters a highly evolutionary-conserved residue of intron-1 donor splice-site, thereby potentially altering exon-1 mRNA-splicing and creating a cryptic acceptor splice-site at position c.154+15. […]
The induction regimen comprised nine doses of CER-001 administered over three weeks. The dose of CER-001 administered in the […] regimen was 10 mg/kg, calculated based upon the amount of ApoA-I in the CER-001 administered and the weight of the subject.
Following the induction regimen, the subject was administered CER-001 according to a consolidation regimen comprising seven doses of CER-001 administered over four weeks. The dose of CER-001 administered in the […] regimen was 10 mg/kg, calculated based upon the amount of ApoA-I in the CER-001 administered and the weight of the subject.
Following the consolidation regimen, the subject was administered CER-001 according to a maintenance regimen comprising once a week administration of CER-001 for three weeks. The dose of CER-001 administered in the maintenance regimen was 10 mg/kg calculated based upon the amount of ApoA-I in the CER-001 to be administered and the weight of the subject. […]

[3] = tested on: eyes of albino rabbits; format: in vivo; conditions: for ocular tolerance: albino rabbits, CER-001 8 mg/ml (protein weight basis)
[4] = tested on: endotoxin-induced uveitis (severe inflammation); format: in vivo; conditions: albino rabbits
Protocol: CER-001 vehicle and Solu-Medrol®, an injectable formulation containing the anti-inflammatory glucocorticoid methylprednisolone sodium succinate, were included as controls. Tolerance was assessed by the McDonald-Shadduck scoring system (see, Eaton et al., Journal of Ocular Pharmacology and Therapeutics 33(10):718-734) 6 and 24 hours after administration. Cell infiltration and protein content in the aqueous humor were measured 24 hours after administration.

## CC[C@H]1OC(=O)[C@H](C)[C@@H](O[C@H]2C[C@@](C)(OC)[C@@H](O)[C@H](C)O2)[C@H](C)[C@@H](O[C@@H]2O[C@H](C)C[C@H](N(C)C)[C@H]2O)[C@](C)(O)C[C@@H](C)CN(C)[C@H](C)[C@@H](O)[C@]1(C)O [azithromycin, reference compound]
[1]; azithromycin 10 mg/ml in PBS, five cycles 37° C. to 55° C., FIG. 1A
  appearance of sample following the heating and cooling cycles: contained numerous crystals in the liquid and on the glass tube

## CC(=O)S[C@@H]1CC2=CC(=O)CC[C@]2(C)[C@H]2CC[C@@]3(C)[C@@H](CC[C@@]34CCC(=O)O4)[C@H]12 [spironolactone, reference compound]
[1]; spironolactone 1.5 mg/ml in PBS, five cycles 37° C. to 55° C., FIG. 1B
  appearance of sample following the heating and cooling cycles: contained numerous crystals in the liquid, on the glass tube, and above the meniscus

## CER-001: lipoprotein complex of ApoA-I and phospholipids, 1:2.7 lipoprotein weight:total phospholipid weight ratio, SM:DPPG weight ratio 97:3
[1]; CER-001 without added drug, five heating and cooling cycles from 37° C. to 55° C.
  appearance of sample following the heating and cooling cycles: remained clear
[1]; thermal cycling 37° C. to 55° C.
  complexation with ophthalmic drugs (summary of Example 1): can complex with azithromycin, spironolactone, dexamethasone palmitate, and cyclosporine
[2]; end of 3 months off-treatment follow-up
  visual blur at the end of the follow-up period: did not recur
[2]; one subject with LCAT deficiency, IV infusion 10 mg/kg, later 20 mg/kg, 5 months treatment
  effect of administration on vision: normalization of vision
[2]; one subject with LCAT deficiency, IV infusion 10 mg/kg, later 20 mg/kg, induction, consolidation, maintenance, 5 months treatment
  subject's vision during treatment: improved during the course of treatment
[3]; repeated topical administration of up to 8 drops
  ocular tolerance: No tolerance issues were observed
[3]; single intravitreal administration
  ocular tolerance: No tolerance issues were observed
[3]; even with repeated administrations
  ocular tolerance (statement referring to Examples 3 and 4): good ocular tolerance
[4]; 24 hours after administration, FIG. 3A
  cell infiltration in the aqueous humor: positive effect
[4]; 24 hours after administration, FIG. 3B
  protein in the aqueous humor: positive effect
[4]; single intravitreal administration, including 8 mg/ml, 6 and 24 hours, FIGS. 2A-2C
  tolerance (McDonald-Shadduck scoring system): induced significant tolerance
